# Columns and labels:
# Test in all cases: radiometric filter-binding kinase assay
# [1] = system: AKT2 (human), P31751 [S474D]
# [2] = biological target: CAMKK2 (human) (UniProt Q96RR4)
# [3] = biological target: CHEK1 (human) (UniProt O14757)
# [4] = biological target: CLK2 (human) (UniProt P49760)
# [5] = biological target: CSNK1D (human) (UniProt P48730)
# [6] = biological target: DYRK1A (human) (UniProt Q13627)
# [7] = biological target: EPHA4 (human) (UniProt P54764)
# [8] = biological target: HIPK3 (human) (UniProt Q9H422)
# [9] = biological target: IGF1R (human) (UniProt P08069)
# IGF1R (human), sequence (P08069 whole entry, looked up): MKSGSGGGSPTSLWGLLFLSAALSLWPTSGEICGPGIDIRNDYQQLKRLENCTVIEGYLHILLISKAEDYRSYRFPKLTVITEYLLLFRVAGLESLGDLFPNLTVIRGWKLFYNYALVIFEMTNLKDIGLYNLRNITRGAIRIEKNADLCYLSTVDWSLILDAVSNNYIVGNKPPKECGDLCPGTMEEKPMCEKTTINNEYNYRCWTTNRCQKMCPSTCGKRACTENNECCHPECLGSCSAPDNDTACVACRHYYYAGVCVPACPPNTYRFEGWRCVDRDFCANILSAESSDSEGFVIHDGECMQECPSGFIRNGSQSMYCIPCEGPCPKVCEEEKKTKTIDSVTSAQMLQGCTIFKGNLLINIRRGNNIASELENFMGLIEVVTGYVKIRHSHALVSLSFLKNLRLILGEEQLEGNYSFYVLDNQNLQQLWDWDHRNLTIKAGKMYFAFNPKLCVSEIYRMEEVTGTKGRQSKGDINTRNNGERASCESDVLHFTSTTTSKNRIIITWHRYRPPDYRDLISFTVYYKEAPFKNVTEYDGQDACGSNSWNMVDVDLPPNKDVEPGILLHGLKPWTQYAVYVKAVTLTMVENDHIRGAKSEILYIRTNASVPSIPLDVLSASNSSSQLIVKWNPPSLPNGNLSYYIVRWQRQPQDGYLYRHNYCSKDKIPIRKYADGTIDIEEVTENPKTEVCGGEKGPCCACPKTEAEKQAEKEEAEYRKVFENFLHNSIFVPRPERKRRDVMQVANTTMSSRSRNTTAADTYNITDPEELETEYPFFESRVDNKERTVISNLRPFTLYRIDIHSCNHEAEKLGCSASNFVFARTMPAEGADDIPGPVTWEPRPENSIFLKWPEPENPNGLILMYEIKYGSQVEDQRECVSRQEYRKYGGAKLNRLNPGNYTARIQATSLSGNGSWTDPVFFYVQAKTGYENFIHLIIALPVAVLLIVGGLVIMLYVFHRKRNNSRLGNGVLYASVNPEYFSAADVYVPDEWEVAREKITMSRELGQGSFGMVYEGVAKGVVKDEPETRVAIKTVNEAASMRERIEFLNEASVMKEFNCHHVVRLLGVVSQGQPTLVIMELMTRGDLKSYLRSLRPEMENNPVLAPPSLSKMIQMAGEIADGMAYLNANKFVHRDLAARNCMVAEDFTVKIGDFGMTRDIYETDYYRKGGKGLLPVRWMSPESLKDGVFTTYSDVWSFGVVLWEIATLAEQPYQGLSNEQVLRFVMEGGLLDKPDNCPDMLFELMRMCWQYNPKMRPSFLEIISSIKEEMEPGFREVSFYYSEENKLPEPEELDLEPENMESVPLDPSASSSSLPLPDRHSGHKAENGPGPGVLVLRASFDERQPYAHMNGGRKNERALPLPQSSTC
# [10] = biological target: IKBKE (human) (UniProt Q14164)
# [11] = biological target: IRAK4 (human) (UniProt Q9NWZ3)
# [12] = biological target: MAP3K7 TAB1 (human) (UniProt Q15750+O43318)
# [13] = biological target: MAPK12 (human) (UniProt P53778)
# MAPK12 (human), sequence (P53778 whole entry, looked up): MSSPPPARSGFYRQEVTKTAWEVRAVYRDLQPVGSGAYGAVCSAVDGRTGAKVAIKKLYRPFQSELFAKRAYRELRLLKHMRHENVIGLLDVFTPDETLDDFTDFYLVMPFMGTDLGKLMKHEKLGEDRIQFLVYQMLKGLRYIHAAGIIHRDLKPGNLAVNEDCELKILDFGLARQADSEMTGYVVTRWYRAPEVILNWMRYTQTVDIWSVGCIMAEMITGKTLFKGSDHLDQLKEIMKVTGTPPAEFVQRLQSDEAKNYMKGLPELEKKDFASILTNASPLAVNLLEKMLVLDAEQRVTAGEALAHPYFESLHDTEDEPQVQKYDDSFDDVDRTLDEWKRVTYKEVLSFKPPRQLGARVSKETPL
# [14] = biological target: MAPK14 (human) (UniProt Q16539)
# [15] = biological target: MAPK15 (human) (UniProt Q8TD08)
# [16] = biological target: MAPK3 (human) (UniProt P27361)
# [17] = biological target: MAPKAPK2 (human) (UniProt P49137); conditions: compound 1.0 µM
# [18] = biological target: MARK1 (human) (UniProt Q9P0L2)
# MARK1 (human), sequence (Q9P0L2 whole entry, looked up): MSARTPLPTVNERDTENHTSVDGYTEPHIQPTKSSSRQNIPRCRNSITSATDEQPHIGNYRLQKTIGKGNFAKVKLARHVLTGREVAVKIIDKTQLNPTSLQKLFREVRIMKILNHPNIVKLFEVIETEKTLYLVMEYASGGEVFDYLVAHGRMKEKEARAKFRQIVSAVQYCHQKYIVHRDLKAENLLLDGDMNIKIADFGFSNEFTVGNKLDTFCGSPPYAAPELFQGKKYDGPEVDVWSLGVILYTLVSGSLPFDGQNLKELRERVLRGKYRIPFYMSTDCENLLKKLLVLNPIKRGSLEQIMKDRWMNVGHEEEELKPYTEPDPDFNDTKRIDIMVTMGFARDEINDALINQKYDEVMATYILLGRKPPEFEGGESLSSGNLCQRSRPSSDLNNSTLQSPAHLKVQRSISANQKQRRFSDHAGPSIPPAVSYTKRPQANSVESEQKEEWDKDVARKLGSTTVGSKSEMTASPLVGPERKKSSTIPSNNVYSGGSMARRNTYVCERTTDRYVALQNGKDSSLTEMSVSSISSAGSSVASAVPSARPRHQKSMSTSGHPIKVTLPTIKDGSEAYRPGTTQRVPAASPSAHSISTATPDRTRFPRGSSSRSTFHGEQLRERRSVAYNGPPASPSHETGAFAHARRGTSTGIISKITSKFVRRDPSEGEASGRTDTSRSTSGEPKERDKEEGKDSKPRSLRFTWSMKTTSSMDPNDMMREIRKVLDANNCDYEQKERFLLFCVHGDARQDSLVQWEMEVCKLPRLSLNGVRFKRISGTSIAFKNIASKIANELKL
# [19] = biological target: MARK2 (human) (UniProt Q7KZI7)
# [20] = biological target: MST4 (human) (UniProt Q9P289)
# [21] = biological target: NEK2 (human) (UniProt P51955)
# NEK2 (human), sequence (P51955 whole entry, looked up): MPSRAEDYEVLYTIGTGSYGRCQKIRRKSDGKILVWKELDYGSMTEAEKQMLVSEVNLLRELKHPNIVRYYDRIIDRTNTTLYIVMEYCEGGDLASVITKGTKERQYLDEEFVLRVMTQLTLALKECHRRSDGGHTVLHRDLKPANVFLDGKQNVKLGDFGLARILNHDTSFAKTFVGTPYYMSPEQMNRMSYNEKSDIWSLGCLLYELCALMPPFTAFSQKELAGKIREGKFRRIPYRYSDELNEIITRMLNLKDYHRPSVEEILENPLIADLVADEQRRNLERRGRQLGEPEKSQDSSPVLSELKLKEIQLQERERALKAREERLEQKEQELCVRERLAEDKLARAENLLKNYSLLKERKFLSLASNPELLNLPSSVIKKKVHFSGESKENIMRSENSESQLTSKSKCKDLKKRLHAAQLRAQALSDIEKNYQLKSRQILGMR
# [22] = biological target: NEK6 (human) (UniProt Q9HC98)
# [23] = system: PAK2 (human), Q13177 [T402E]
# [24] = biological target: PAK4 (human) (UniProt O96013)
# [25] = biological target: PAK6 (human) (UniProt Q9NQU5)
# [26] = biological target: PAK7 (human) (UniProt Q9P286)
# PAK7 (human), sequence (Q9P286 whole entry, looked up): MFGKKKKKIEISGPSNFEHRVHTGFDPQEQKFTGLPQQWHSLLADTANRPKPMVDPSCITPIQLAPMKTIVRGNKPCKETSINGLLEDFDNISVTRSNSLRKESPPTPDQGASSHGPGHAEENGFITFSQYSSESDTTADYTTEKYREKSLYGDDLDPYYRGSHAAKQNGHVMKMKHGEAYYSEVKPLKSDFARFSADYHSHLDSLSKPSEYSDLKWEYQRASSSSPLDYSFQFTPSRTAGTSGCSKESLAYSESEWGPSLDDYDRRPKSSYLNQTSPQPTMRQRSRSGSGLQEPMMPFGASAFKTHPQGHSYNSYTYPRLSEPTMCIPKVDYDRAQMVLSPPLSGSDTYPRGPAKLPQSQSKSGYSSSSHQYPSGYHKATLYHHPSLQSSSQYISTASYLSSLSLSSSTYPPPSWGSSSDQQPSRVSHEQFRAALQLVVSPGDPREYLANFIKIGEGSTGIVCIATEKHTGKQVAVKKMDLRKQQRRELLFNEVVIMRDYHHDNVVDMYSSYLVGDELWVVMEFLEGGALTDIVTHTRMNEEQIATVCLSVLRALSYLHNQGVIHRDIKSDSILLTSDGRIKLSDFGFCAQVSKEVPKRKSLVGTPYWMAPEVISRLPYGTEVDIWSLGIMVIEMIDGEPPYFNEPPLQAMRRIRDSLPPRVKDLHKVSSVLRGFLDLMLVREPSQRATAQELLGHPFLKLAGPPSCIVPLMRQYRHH
# [27] = biological target: PIM2 (human) (UniProt Q9P1W9)
# PIM2 (human), sequence (Q9P1W9 whole entry, looked up): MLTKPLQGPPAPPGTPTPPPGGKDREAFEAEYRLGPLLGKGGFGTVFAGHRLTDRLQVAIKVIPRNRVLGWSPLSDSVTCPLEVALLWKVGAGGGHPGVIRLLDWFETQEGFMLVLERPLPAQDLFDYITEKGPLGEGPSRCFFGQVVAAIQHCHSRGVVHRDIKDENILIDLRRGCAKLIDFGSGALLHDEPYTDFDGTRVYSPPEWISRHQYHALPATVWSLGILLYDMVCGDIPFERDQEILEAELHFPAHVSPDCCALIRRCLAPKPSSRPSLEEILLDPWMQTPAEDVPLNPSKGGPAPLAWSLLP
# [28] = biological target: PIM3 (human) (UniProt Q86V86)
# [29] = biological target: PKN2 (human) (UniProt Q16513)
# [30] = biological target: PLK1 (human) (UniProt P53350)
# [31] = biological target: RIPK2 (human) (UniProt O43353)
# RIPK2 (human), sequence (O43353 whole entry, looked up): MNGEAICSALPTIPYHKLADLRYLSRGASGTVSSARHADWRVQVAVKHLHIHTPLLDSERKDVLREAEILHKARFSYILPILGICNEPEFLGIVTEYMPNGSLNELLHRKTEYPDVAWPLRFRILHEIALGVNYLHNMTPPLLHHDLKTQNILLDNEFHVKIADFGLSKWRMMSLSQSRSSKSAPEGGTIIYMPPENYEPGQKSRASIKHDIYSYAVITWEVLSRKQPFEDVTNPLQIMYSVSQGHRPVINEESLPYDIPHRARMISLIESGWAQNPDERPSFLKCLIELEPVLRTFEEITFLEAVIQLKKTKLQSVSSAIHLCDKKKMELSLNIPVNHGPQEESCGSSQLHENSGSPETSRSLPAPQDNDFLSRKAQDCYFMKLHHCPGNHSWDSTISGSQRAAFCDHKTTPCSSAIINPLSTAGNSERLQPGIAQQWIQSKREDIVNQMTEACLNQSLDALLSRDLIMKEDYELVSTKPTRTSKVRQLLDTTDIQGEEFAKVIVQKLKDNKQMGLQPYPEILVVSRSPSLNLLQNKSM
# [32] = biological target: RPS6KA3 KD1 KD2 (human) (UniProt P51812)
# [33] = biological target: RPS6KA5 KD1 KD2 (human) (UniProt O75582)
# [34] = system: SGK1 (human), O00141 [S422D]
# [35] = biological target: SRPK1 (human) (UniProt Q96SB4)
# CLK2 (human), sequence (P49760 whole entry, looked up): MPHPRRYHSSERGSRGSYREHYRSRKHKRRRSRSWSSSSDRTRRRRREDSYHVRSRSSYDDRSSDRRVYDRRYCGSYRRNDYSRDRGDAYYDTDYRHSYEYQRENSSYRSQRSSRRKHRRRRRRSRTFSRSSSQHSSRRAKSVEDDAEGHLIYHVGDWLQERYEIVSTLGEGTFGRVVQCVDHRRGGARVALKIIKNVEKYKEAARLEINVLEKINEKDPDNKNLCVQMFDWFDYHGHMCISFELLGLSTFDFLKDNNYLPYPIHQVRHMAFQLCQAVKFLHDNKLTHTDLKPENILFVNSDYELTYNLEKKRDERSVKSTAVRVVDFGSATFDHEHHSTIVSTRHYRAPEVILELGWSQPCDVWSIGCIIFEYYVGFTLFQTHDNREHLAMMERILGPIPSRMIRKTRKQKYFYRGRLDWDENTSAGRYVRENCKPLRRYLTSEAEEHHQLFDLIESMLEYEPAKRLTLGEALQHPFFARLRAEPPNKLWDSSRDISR
compound,measurement,setting,value
CC1=C(CO)C(=O)O[C@@H]([C@@H](C)[C@H]2CC[C@H]3[C@@H]4C[C@H]5O[C@]56[C@@H](O)C=CC(=O)[C@]6(C)C4CC[C@]23C)C1 (stereo partly drawn),residual activity,[1]; compound 0.1 µM,92%
same,residual activity,[1]; compound 1.0 µM,72%
same,residual activity,[1]; compound 10.0 µM,10%
same,residual activity,[2]; compound 0.1 µM,115%
same,residual activity,[2]; compound 1.0 µM,115%
same,residual activity,[2]; compound 10.0 µM,99%
same,residual activity,[3]; compound 0.1 µM,109%
same,residual activity,[3]; compound 1.0 µM,114%
same,residual activity,[3]; compound 10.0 µM,117%
same,residual activity,[4]; compound 0.1 µM,88%
same,residual activity,[4]; compound 1.0 µM,102%
same,residual activity,[4]; compound 10.0 µM,94%
same,residual activity,[5]; compound 0.1 µM,92%
same,residual activity,[5]; compound 1.0 µM,103%
same,residual activity,[5]; compound 10.0 µM,105%
same,residual activity,[6]; compound 0.1 µM,92%
same,residual activity,[6]; compound 1.0 µM,94%
same,residual activity,[6]; compound 10.0 µM,100%
same,residual activity,[7]; compound 0.1 µM,107%
same,residual activity,[7]; compound 1.0 µM,98%
same,residual activity,[7]; compound 10.0 µM,109%
same,residual activity,[8]; compound 0.1 µM,96%
same,residual activity,[8]; compound 1.0 µM,94%
same,residual activity,[8]; compound 10.0 µM,58%
same,residual activity,[9]; compound 0.1 µM,105%
same,residual activity,[9]; compound 1.0 µM,123%
same,residual activity,[9]; compound 10.0 µM,113%
same,residual activity,[10]; compound 0.1 µM,96%
same,residual activity,[10]; compound 1.0 µM,97%
same,residual activity,[10]; compound 10.0 µM,61%
same,residual activity,[11]; compound 1.0 µM,101%
same,residual activity,[11]; compound 10.0 µM,79%
same,residual activity,[12]; compound 0.1 µM,114%
same,residual activity,[12]; compound 1.0 µM,104%
same,residual activity,[12]; compound 10.0 µM,109%
same,residual activity,[13]; compound 0.1 µM,114%
same,residual activity,[13]; compound 1.0 µM,116%
same,residual activity,[13]; compound 10.0 µM,103%
same,residual activity,[14]; compound 0.1 µM,101%
same,residual activity,[14]; compound 1.0 µM,92%
same,residual activity,[14]; compound 10.0 µM,95%
same,residual activity,[15]; compound 1.0 µM,115%
same,residual activity,[15]; compound 10.0 µM,72%
same,residual activity,[16]; compound 0.1 µM,99%
same,residual activity,[16]; compound 1.0 µM,100%
same,residual activity,[16]; compound 10.0 µM,109%
same,residual activity,[17],56%
same,residual activity,[18]; compound 0.1 µM,106%
same,residual activity,[18]; compound 1.0 µM,115%
same,residual activity,[18]; compound 10.0 µM,111%
same,residual activity,[19]; compound 0.1 µM,109%
same,residual activity,[19]; compound 1.0 µM,111%
same,residual activity,[19]; compound 10.0 µM,118%
same,residual activity,[20]; compound 0.1 µM,97%
same,residual activity,[20]; compound 1.0 µM,95%
same,residual activity,[21]; compound 0.1 µM,93%
same,residual activity,[21]; compound 1.0 µM,94%
same,residual activity,[21]; compound 10.0 µM,82%
same,residual activity,[22]; compound 1.0 µM,102%
same,residual activity,[22]; compound 10.0 µM,111%
same,residual activity,[23]; compound 0.1 µM,100%
same,residual activity,[23]; compound 1.0 µM,96%
same,residual activity,[23]; compound 10.0 µM,86%
same,residual activity,[24]; compound 0.1 µM,94%
same,residual activity,[24]; compound 1.0 µM,104%
same,residual activity,[24]; compound 10.0 µM,104%
same,residual activity,[25]; compound 0.1 µM,125%
same,residual activity,[25]; compound 1.0 µM,126%
same,residual activity,[25]; compound 10.0 µM,105%
same,residual activity,[26]; compound 0.1 µM,102%
same,residual activity,[26]; compound 1.0 µM,116%
same,residual activity,[26]; compound 10.0 µM,111%
same,residual activity,[27]; compound 0.1 µM,96%
same,residual activity,[27]; compound 1.0 µM,102%
same,residual activity,[27]; compound 10.0 µM,97%
same,residual activity,[28]; compound 0.1 µM,95%
same,residual activity,[28]; compound 1.0 µM,110%
same,residual activity,[28]; compound 10.0 µM,83%
same,residual activity,[29]; compound 0.1 µM,103%
same,residual activity,[29]; compound 1.0 µM,95%
same,residual activity,[29]; compound 10.0 µM,104%
same,residual activity,[30]; compound 0.1 µM,105%
same,residual activity,[30]; compound 1.0 µM,101%
same,residual activity,[30]; compound 10.0 µM,118%
same,residual activity,[31]; compound 0.1 µM,95%
same,residual activity,[31]; compound 1.0 µM,108%
same,residual activity,[31]; compound 10.0 µM,110%
same,residual activity,[32]; compound 0.1 µM,114%
same,residual activity,[32]; compound 1.0 µM,98%
same,residual activity,[32]; compound 10.0 µM,74%
same,residual activity,[33]; compound 0.1 µM,104%
same,residual activity,[33]; compound 1.0 µM,101%
same,residual activity,[33]; compound 10.0 µM,99%
same,residual activity,[34]; compound 0.1 µM,110%
same,residual activity,[34]; compound 10.0 µM,103%
same,residual activity,[35]; compound 0.1 µM,89%
same,residual activity,[35]; compound 1.0 µM,86%
same,residual activity,[35]; compound 10.0 µM,63%
